Laboratory results: patent US7816522B2, “Triazolone derivatives” (Eisai Co., Ltd., priority 2006, dated 2010)

What follows are molecules tested against T1, human clotting factor VIIa (Homo sapiens, UniProt P08709) (assay: Inhibitory activity against clotting factor VIIa (chromogenic substrate Spectrozyme FVIIa, TF/Factor VIIa enzyme solution)). Details: human Factor VIIa 5 nmol/L with human TF 10 nmol/L, room temperature 40 minutes, 405 nm.
T1 construct: a human clotting factor VIIa (hereinafter, “Factor VIIa”) purified sample; purchased Enzyme Research Laboratories HFVIIa
T1 sequence (P08709 213-466 limits assumed): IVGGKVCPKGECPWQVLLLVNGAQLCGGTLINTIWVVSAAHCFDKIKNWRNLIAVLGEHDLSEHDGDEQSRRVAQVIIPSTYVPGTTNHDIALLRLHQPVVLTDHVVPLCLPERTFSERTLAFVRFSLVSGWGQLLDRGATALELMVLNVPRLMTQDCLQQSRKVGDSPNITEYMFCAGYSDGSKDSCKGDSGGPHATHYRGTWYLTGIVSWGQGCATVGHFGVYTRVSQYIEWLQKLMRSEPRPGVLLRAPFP
T1 sequence (P08709 61-212 limits assumed): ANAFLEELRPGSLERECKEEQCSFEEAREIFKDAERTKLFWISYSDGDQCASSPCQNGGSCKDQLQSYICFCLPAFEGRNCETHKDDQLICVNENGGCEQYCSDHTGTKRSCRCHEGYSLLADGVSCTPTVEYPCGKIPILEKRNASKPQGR
T1 sequence (P13726 33-295 partner): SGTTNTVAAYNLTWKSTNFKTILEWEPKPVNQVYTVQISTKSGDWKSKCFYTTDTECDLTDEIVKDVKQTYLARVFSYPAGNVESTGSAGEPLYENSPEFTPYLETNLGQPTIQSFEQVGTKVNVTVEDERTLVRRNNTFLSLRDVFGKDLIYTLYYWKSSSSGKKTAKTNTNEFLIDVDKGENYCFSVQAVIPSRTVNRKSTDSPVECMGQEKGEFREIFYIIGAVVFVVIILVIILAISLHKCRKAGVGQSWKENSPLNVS
Type: biochemical
How it was run: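 Human Factor VIIa (5 nmol/L) with human TF (10 nmol/L) in Tris-BSA buffer pH 7.4 containing 15 mmol/L CaCl2 and cephalin, with Spectrozyme FVIIa substrate. Reaction 40 min at room temperature; 4-nitroanilide read at 405 nm. IC50 by non-linear regression over 100 μmol/L–0.1 nmol/L.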
`COc1cc(C(Nc2ccc(C(=N)N)cc2)c2nn(-c3ncccn3)c(=O)[nH]2)cc(F)c1OC` (racemic) [Example 116, (R) and (S)-4-{[(3-fluoro-4,5-dimethoxyphenyl)-(5-oxo-1-pyrimidin-2-yl-4,5-dihydro-1H-[1,2,4]triazol-3-yl)methyl]amino}benzamidine acetate] was tested, and the IC50 was 11.9 nM.
Molecule `COc1ccc(C(Nc2ccc(C(=N)N)cc2)c2nn(-c3ncccn3)c(=O)[nH]2)cc1OCCF` (racemic) [Example 117, (R) and (S)-4-({[3-(2-fluoroethoxy)-4-methoxyphenyl]-(5-oxo-1-pyrimidin-2-yl-4,5-dihydro-1H-[1,2,4]triazol-3-yl)methyl}amino)benzamidine acetate] has an IC50 of 22.4 nM.
`C=CCOc1cc(C(Nc2ccc(C(=N)N)cc2)c2nn(-c3ncccn3)c(=O)[nH]2)ccc1OC` (racemic) [Example 118, (R) and (S)-4-{[(3-allyloxy-4-methoxyphenyl)-(5-oxo-1-pyrimidin-2-yl-4,5-dihydro-1H-[1,2,4]triazol-3-yl)methyl]amino}benzamidine acetate] gave an IC50 of 7.3 nM.
With `COc1cc(F)c(C(Nc2ccc(C(=N)N)cc2)c2nn(-c3cccnn3)c(=O)[nH]2)cc1OC` (racemic) [Example 119, (R) and (S)-4-{[(2-fluoro-4,5-dimethoxyphenyl)-(5-oxo-1-pyridazin-3-yl-4,5-dihydro-1H-[1,2,4]triazol-3-yl)methyl]amino}benzamidine acetate] the IC50 was 7 nM.
`CCOc1cc(C(Nc2ccc(C(=N)N)cc2)c2nn(-c3cccnn3)c(=O)[nH]2)ccc1OC` (racemic) [Example 121, (R) and (S)-4-{[(3-ethoxy-4-methoxyphenyl)-(5-oxo-1-pyridazin-3-yl-4,5-dihydro-1H-[1,2,4]triazol-3-yl)methyl]amino}benzamidine acetate] showed an IC50 of 6.8 nM.
For `CCOc1cc(C(Nc2ccc(C(=N)N)cc2)c2nn(-c3ccccc3C(=O)O)c(=O)[nH]2)c(F)cc1OC` (racemic) [Example 122, (R) and (S)-2-{3[(4-carbamimidoylphenylamino)-(5-ethoxy-2-fluoro-4-methoxyphenyl)methyl]-5-oxo-4,5-dihydro-[1,2,4]triazol-1-yl}benzoic acid acetate], the IC50 was 2 nM.
Work on `COc1cc(C(Nc2ccc(C(=N)N)cc2)c2nn(-c3ncccc3F)c(=O)[nH]2)cc2c1OCC2` (racemic) [Example 123, (R) and (S)-4-({[1-(3-fluoropyridin-2-yl)-5-oxo-4,5-dihydro-1H-[1,2,4]triazol-3-yl]-(7-methoxy-2,3-dihydrobenzofuran-5-yl)methyl}amino)benzamidine acetate] yielded an IC50 of 4.6 nM.
Work on `COCCc1cc(C(Nc2ccc(C(=N)N)cc2)c2nn(-c3ncccn3)c(=O)[nH]2)cc(OC)c1OC` (racemic) [Example 129, (R) and (S)-4-({[3,4-dimethoxy-5-(2-methoxyethyl)-phenyl]-(5-oxo-1-pyrimidin-2-yl-4,5-dihydro-1H-[1,2,4]triazol-3-yl)methyl}amino)benzamidine acetate] yielded an IC50 of 7.5 nM.
Work on `COc1cc(C(Nc2ccc(C(=N)N)cc2)c2nn(-c3ncccn3)c(=O)[nH]2)cc2c1OCOCC2` (racemic) [Example 130, (R) and (S)-4-{[(4-methoxy-8,9-dihydro-5,7-dioxabenzocyclohepten-2-yl)-(5-oxo-1-pyrimidin-2-yl-4,5-dihydro-1H-[1,2,4]triazol-3-yl)methyl]amino}benzamidine acetate] yielded an IC50 of 10.6 nM.
Work on `COc1cc(C(Nc2ccc(C(=N)N)cc2)c2nn(-c3ncccn3)c(=O)[nH]2)cc(CC#N)c1F` (racemic) [Example 131, (R) and (S)-4-{[(3-cyanomethyl-4-fluoro-5-methoxyphenyl)-(5-oxo-1-pyrimidin-2-yl-4,5-dihydro-1H-[1,2,4]triazol-3-yl)methyl]amino}benzamidine acetate] yielded an IC50 of 5.6 nM.
With `CCOc1cc(C(Nc2ccc(C(=N)N)cc2)c2nn(-c3ncccc3F)c(=O)[nH]2)ccc1OC` (racemic) [Example 132, (R) and (S)-4-({(3-ethoxy-4-methoxyphenyl)-[1-(3-fluoro-pyridin-2-yl)-5-oxo-4,5-dihydro-1H-[1,2,4]triazol-3-yl]methyl}amino}benzamidine acetate] the IC50 was 2.4 nM.
`COc1cc(C(Nc2ccc(C(=N)N)cc2)c2nn(-c3ncccc3F)c(=O)[nH]2)cc2c1OCOC2` (racemic) [Example 133, (R) and (S)-4-({[1-(3-fluoropyridin-2-yl)-5-oxo-4,5-dihydro-1H-[1,2,4]triazol-3-yl]-(8-methoxy-4H-benzo[1,3]dioxin-6-yl)methyl}amino)benzamidine acetate] showed an IC50 of 6.3 nM.
Work on `COc1cc(OCCF)c(F)c(C(Nc2ccc(C(=N)N)cc2)c2nn(-c3ncccc3N)c(=O)[nH]2)c1` (racemic) [Example 136, (R) and (S)-4-({[1-(3-aminopyridin-2-yl)-5-oxo-4,5-dihydro-1H-[1,2,4]triazol-3-yl]-[2-fluoro-3-(2-fluoroethoxy)-5-methoxyphenyl]methyl}amino)benzamidine acetate] yielded an IC50 of 5.1 nM.
`COc1cc(OC)c(F)c(C(Nc2ccc(C(=N)N)cc2)c2nn(-c3ncccc3N)c(=O)[nH]2)c1` (racemic) [Example 137, (R) and (S)-4-({[1-(3-aminopyridin-2-yl)-5-oxo-4,5-dihydro-1H-[1,2,4]triazol-3-yl]-(2-fluoro-3,5-dimethoxyphenyl)methyl}amino)benzamidine acetate] showed an IC50 of 10.3 nM.
For `COc1cc(F)c(C(Nc2ccc(C(=N)N)c(F)c2)c2nn(-c3ncccn3)c(=O)[nH]2)cc1OC` (racemic) [Example 143, (R) and (S)-2-fluoro-4-{[(2-fluoro-4,5-dimethoxyphenyl)-(5-oxo-1-pyrimidin-2-yl-4,5-dihydro-1H-[1,2,4]triazol-3-yl)methyl]amino}benzamidine acetate], the IC50 was 23 nM.
In the case of `COc1cc(C(Nc2ccc(C(=N)N)cc2)c2nn(-c3cccnn3)c(=O)[nH]2)ccc1OCC#N` (racemic) [Example 144, (R) and (S)-4-{[(4-cyanomethoxy-3-methoxyphenyl)-(5-oxo-1-pyridazin-3-yl-4,5-dihydro-1H-[1,2,4]triazol-3-yl)methyl]amino}benzamidine acetate], the IC50 is reported as 7.7 nM.
Molecule `COc1cc(OC)c(F)c(C(Nc2ccc(C(=N)N)cc2)c2nn(-c3cccnn3)c(=O)[nH]2)c1` (racemic) [Example 145, (R) and (S)-4-{[(2-fluoro-3,5-dimethoxyphenyl)-(5-oxo-1-pyridazin-3-yl-4,5-dihydro-1H-[1,2,4]triazol-3-yl)methyl]amino}benzamidine acetate] has an IC50 of 8.7 nM.
Work on `COc1cc(C(Nc2ccc(C(=N)N)cc2)c2nn(-c3cccnn3)c(=O)[nH]2)cc(CC#N)c1F` (racemic) [Example 146, (R) and (S)-4-{[(3-cyanomethyl-4-fluoro-5-methoxyphenyl)-(5-oxo-1-pyridazin-3-yl-4,5-dihydro-1H-[1,2,4]triazol-3-yl)methyl]amino}benzamidine acetate] yielded an IC50 of 8.1 nM.
Molecule `COc1cc(OCC#N)c(F)c(C(Nc2ccc(C(=N)N)cc2)c2nn(-c3cccnn3)c(=O)[nH]2)c1` (racemic) [Example 148, (R) and (S)-{[(3-cyanomethoxy-2-fluoro-5-methoxyphenyl)-(5-oxo-1-pyridazin-3-yl-4,5-dihydro-1H-[1,2,4]triazol-3-yl)methyl]amino}benzamidine acetate] has an IC50 of 8.7 nM.
Molecule `COc1ccc(C(Nc2ccc(C(=N)N)cc2)c2nn(-c3cccnn3)c(=O)[nH]2)cc1OC` (racemic) [Example 149, (R) and (S)-4-{[(3,4-dimethoxyphenyl)-(5-oxo-1-pyridazin-3-yl-4,5-dihydro-1H-[1,2,4]triazol-3-yl)methyl]amino}benzamidine acetate] has an IC50 of 9.2 nM.
`COc1cc(C(Nc2ccc(C(=N)N)cc2)c2nn(-c3cccnn3)c(=O)[nH]2)cc2c1OCOC2` (racemic) [Example 150, (R) and (S)-4-{[(8-methoxy-4H-benzo[1,3]dioxin-6-yl)-(5-oxo-1-pyridazin-3-yl-4,5-dihydro-1H[1,2,4]triazol-3-yl)methyl]amino}benzamidine acetate] showed an IC50 of 9 nM.
`COc1cc(OCCF)c(F)c(C(Nc2ccc(C(=N)N)cc2)c2nn(-c3cccnn3)c(=O)[nH]2)c1` (racemic) [Example 151, (R) and (S)-4-{[(2-fluoro-3-(2-fluoroethoxy)-5-methoxyphenyl)-(5-oxo-1-pyridazin-3-yl-4,5-dihydro-1H-[1,2,4]triazol-3-yl)methyl]amino}benzamidine acetate] was tested, and the IC50 was 5.4 nM.
Molecule `COC(=O)c1sccc1-n1nc(C(Nc2ccc(C(=N)N)cc2)c2cc3c(c(OC)c2)OCOC3)[nH]c1=O` (racemic) [Example 152, (R) and (S)-3-{3-[(4-carbamimidoylphenylamino)-(8-methoxy-4H-benzo[1,3]dioxin-6-yl)methyl]-5-oxo-4,5-dihydro[1,2,4]triazol-1-yl}thiophene-2-carboxylic acid methyl ester acetate] has an IC50 of 1.2 nM.
With `COc1cc(OCCO)c(F)c(C(Nc2ccc(C(=N)N)cc2)c2nn(-c3ncccn3)c(=O)[nH]2)c1` (racemic) [Example 153, 4-({[2-fluoro-3-(2-hydroxyethoxy)-5-methoxyphenyl]-(5-oxo-1-pyrimidin-2-yl-4,5-dihydro-1H-[1,2,4]triazol-3-yl)methyl}amino)benzamidine] the IC50 was 4.8 nM.
Work on `COc1cc(OC)c(F)c(C(Nc2ccc(C(=N)N)cc2)c2nn(-c3ncc[nH]c3=O)c(=O)[nH]2)c1` (racemic) [Example 154, (R) and (S)-4-({(2-fluoro-3,5-dimethoxyphenyl)-[5-oxo-1-(3-oxo-3,4-dihydropyrazin-2-yl)]-4,5-dihydro-1H-[1,2,4]triazol-3-yl]methyl}amino)benzamidine acetate] yielded an IC50 of 21 nM.
`COc1ccc(C(Nc2ccc(C(=N)N)cc2)c2nn(-c3ccsc3C(=O)O)c(=O)[nH]2)cc1OC` (racemic) [Example 155, (R) and (S)-3-{3-[(4-carbamimidoylphenylamino)-(3,4-dimethoxyphenyl)methyl]-5-oxo-4,5-dihydro[1,2,4]triazol-1-yl}thiophene-2-carboxylic acid acetate] was tested, and the IC50 was 2.3 nM.
